Data: PMC5460925, “Degradation Paradigm of the Gut Hormone, Pancreatic Polypeptide, by Hepatic and Renal Peptidases” (Endocrinology, 2017)

What was measured:
[1] = target: T1, mouse Y4 receptor (Mus musculus, UniProt Q61041); assay: Y4 receptor binding assay (125I-PP competition); conditions: membranes of HEK293 cells overexpressing mouse Y4 receptor; competition with 125I-PP (100 pM); 90 min, 4°C; mean ± SEM of three to five separate experiments; read-out: IC50 (half maximal inhibitory concentration), Y4 receptor binding affinity
T1 construct: expressed in transfected cells; host or cells: HEK293
Procedure: Transfected HEK293 cells overexpressing the mouse Y4 receptor were prepared and binding assays performed as previously described ([29]). Isolated cell membranes (protein concentration, 1 to 2 µg/mL) were incubated for 90 minutes in siliconized polypropylene tubes together with ^125I-PP [1 kBq (100 pM)] and a dose response of unlabeled competing peptides at 4°C in binding buffer [20 mM HEPES (pH 7.4), 1 mM MgCl2, 5 mM CaCl2, 0.1% bovine serum albumin, and protease inhibitors (0.2 mM phenylmethylsulfonyl fluoride, 0.1 mM Diprotin A, and 10 µM phosphoramidon ( all from Sigma-Aldrich)] in a final assay volume of 0.5 mL. PP was iodinated as previously described ([8]) using ^125I from GE Healthcare Life Sciences (Amersham, UK). Pelleted membranes were washed with 5 mL ice-cold assay buffer, and the membranes were centrifuged at 15,874g for 3 minutes at 4°C, as described, to separate bound and free label. Bound radioactivity was measured using a γ-counter (NE 1600; NE Technology Ltd, Reading, UK). Specific binding was calculated as the difference between the amount of ^125I-PP bound in the absence (total binding) and presence of 5 μM unlabeled competing peptide (nonsaturable binding). All curves were performed with points in triplicate. Half maximal inhibitory concentration values were calculated using Prism, version 5.01 (GraphPad Software Inc., San Diego, CA) using a three-parameter logistic equation for the nonlinear regression fit: Y = bottom + (top − bottom)/1 + 10^(LogEC50 − X), where EC50 is the half maximal effective concentration.

[2] = system: food intake in C57/BL6 mice; assay: Acute feeding studies (food intake) in overnight-fasted mice; type: in vivo, mouse
Procedure: All animal procedures were approved by the British Home Office, under the United Kingdom Animal (Scientific Procedures) Act 1986 (project license, 70/6402). Adult male C57/BL6 mice (Harlan, Wyton, UK) weighing 20 to 25 g were maintained in individual cages under controlled temperature (21°C to 23°C) and light (12-hour light/dark cycle, with lights on at 7:00 AM). The mice had ad libitum access to water and normal chow RM1 (Special Diet Services, Devon, UK), unless stated otherwise. For acclimatization, the mice were regularly handled and given 2 sham subcutaneous (SC) and/or intraperitoneal (IP) injections of saline. Before each feeding study, the mice were fasted overnight, and the injections were performed during the early light phase (8:00 to 10:00 AM). The mice were stratified by body weight. To investigate the anorectic effects of DPPIV-resistant analogs, the mice were stratified into treatment groups and administered a SC injection (maximum volume, 100 µL) of vehicle, PP, PP3-36, PP2-36, or PP-Ala0 (n = […]). Food intake was measured at 1, 2, 4, and 8 hours after injection to compare the peptides with short half-lives (PP and its endogenous degradation product, PP3-36) and, in a separate experiment, at 24 hours after injection for peptides with modifications (PP-Ala0 and PP2-36, using PP as the comparator). A PP analog with global modifications for enzyme resistance (PP-x) was also investigated and administered as a SC injection (maximum volume, 100 µL) at a high and low dose (n = 9). Food intake was measured at 1, 2, 4, and 8 hours after injection. […] This dose of phosphoramidon was sufficient to inhibit NEP activity ([30]). Food intake was measured at 1, 2, 4, 8, 24, and 48 hours after injection.

[3] = in vivo; parameters: species or system mouse; conditions: for level at time molar at 1.5 h: male, C57BL/6, mouse, plasma level of PP at 90 minutes
Procedure: The mice were divided into four treatment groups according to body weight. A protocol similar to that used for the phosphoramidon feeding study was used, with an IP injection, followed by a SC injection 15 minutes later (maximum volume, 50 µL for each injection) of phosphoramidon (0, 7, 20, and 60 mg/kg IP), followed by PP (150 nmol/kg SC in saline; n = 4 to 6; […]). […] Additional mice (n = 2) underwent overnight fasting and were culled at 0 minutes after injection of the control substances (saline SC and vehicle IP) for measurement of the baseline levels of circulating PP. The blood was immediately removed via cardiac puncture and centrifuged at 6000 rpm (Sigma 3K18; 12348 rotor; Sigma-Aldrich) for 10 minutes. The plasma was stored at −20°C until analysis. The plasma samples were assayed using an established in-house PP RIA ([8]). The anti-PP antibody was elevated in rabbit against human PP and recognized PP (and other truncated forms) but not in other PP-fold peptides or gastrointestinal peptides. ^125I-PP was prepared using the iodogen method and purified using HPLC. The assay was performed in duplicate in a total volume of 700 µL of 0.06 M phosphate buffer (pH 7.35) containing 0.3% bovine serum albumin. The samples were incubated for 3 days at 4°C before separation of free and antibody-bound ^125I-PP using dextran-coated charcoal. The sensitivity was ≤5 fmol/tube. The intra-assay coefficient of variation was 6%.

[4] = human, in vivo; cited from earlier work
Procedure: Administration of PP to humans is not associated with adverse side effects such as nausea, unlike GLP-1 analogs and, as such, is potentially a useful agent for the regulation of food intake and the treatment of obesity. PP is a relatively small peptide (4.2 kDa) and is therefore susceptible to a number of degradative enzymes and other eliminating mechanisms. PP consequently has a short circulating half-life of approximately 7 minutes in humans ([6]). This short half-life limits the use of native PP as a practical obesity treatment. To the best of our knowledge, the mechanisms for the degradati ...

T1 sequence (Q61041 whole entry): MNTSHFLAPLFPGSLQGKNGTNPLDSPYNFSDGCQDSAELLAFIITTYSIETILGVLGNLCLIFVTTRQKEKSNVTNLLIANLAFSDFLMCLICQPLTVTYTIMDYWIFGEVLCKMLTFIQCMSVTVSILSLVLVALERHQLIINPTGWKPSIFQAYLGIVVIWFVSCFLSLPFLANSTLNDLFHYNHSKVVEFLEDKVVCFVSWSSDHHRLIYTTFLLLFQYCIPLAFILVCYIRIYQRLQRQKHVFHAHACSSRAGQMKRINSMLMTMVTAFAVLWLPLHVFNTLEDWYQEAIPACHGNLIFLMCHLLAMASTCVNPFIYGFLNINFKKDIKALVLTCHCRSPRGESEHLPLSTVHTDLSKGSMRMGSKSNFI

- IC50 [1]: 0.26 ± 0.04 nM
- level at time molar at 1.5 h ([3]; sc, 150 nmol/kg, PP alone): 1.92 ± 0.134 nM
- level at time molar at 1.5 h ([3]; sc, with phosphoramidon 7 mg/kg): 5.46 ± 0.807 nM
- level at time molar at 1.5 h ([3]; sc, with phosphoramidon 20 mg/kg): 5.3 ± 0.461 nM
- level at time molar at 1.5 h ([3]; sc, with phosphoramidon 60 mg/kg): 5.53 ± 0.348 nM
- plasma levels of PP at 45 minutes, alone vs combined with any dose of phosphoramidon ([3]; mouse): did not differ significantly
- decrease of plasma level (peptide cleared) between 45 and 90 minutes after injection ([3]; mouse, sc): ~80%
- level at time molar at 0.5 h ([3]; mouse, sc, 100 nmol/kg, plasma peptide level at 30 minutes after injection): 8.74 ± 0.744 nM
- level at time molar at 2 h ([3]; mouse, sc, 100 nmol/kg, plasma peptide level at 120 minutes after injection): 2.11 ± 0.224 nM
SMILES: CC[C@H](C)[C@H](NC(=O)[C@H](Cc1ccc(O)cc1)NC(=O)[C@H](CCCNC(=N)N)NC(=O)[C@H](CCCNC(=N)N)NC(=O)[C@H](CC(C)C)NC(=O)[C@H](CC(=O)O)NC(=O)[C@H](C)NC(=O)[C@H](C)NC(=O)[C@H](Cc1ccc(O)cc1)NC(=O)[C@H](CCC(N)=O)NC(=O)[C@H](C)NC(=O)[C@H](CCSC)NC(=O)[C@H](CCC(N)=O)NC(=O)[C@H](CCC(=O)O)NC(=O)[C@@H]1CCCN1C(=O)[C@@H](NC(=O)[C@H](C)NC(=O)[C@H](CC(N)=O)NC(=O)[C@H](CC(=O)O)NC(=O)CNC(=O)[C@@H]1CCCN1C(=O)[C@H](Cc1ccc(O)cc1)NC(=O)[C@@H](NC(=O)[C@@H]1CCCN1C(=O)[C@H](CCC(=O)O)NC(=O)[C@H](CC(C)C)NC(=O)[C@@H]1CCCN1C(=O)[C@H](C)N)C(C)C)[C@@H](C)O)C(=O)N[C@@H](CC(N)=O)C(=O)N[C@@H](CCSC)C(=O)N[C@@H](CC(C)C)C(=O)N[C@H](C(=O)N[C@@H](CCCNC(=N)N)C(=O)N1CCC[C@H]1C(=O)N[C@@H](CCCNC(=N)N)C(=O)N[C@@H](Cc1ccc(O)cc1)C(N)=O)[C@@H](C)O [PP, Pancreatic polypeptide]
- cumulative food intake at 8 hours (0- to 8-hour interval), low dose ([2]; 25 nmol/kg SC, overnight-fasted C57BL/6 mice, n = 9, mean ± SEM): 2.36 ± 0.18 g
- inhibition of food intake over 24 hours vs saline ([2]; 150 nmol/kg SC, overnight-fasted C57/BL6 mice, 0 to 24 hours, n = 7): did not
- cumulative food intake 0 to 8 hours ([2]; 150 nmol/kg SC, overnight-fasted C57/BL6 mice, n = 7, mean ± SEM): 0.93 ± 0.10 g
- cumulative food intake at 48 hours, PP alone ([2]; PP 150 nmol/kg SC after vehicle IP, phosphoramidon study, fasted mice, mean ± SEM): 6.52 ± 0.14 g
- food intake at 4 hours, PP alone ([2]; PP 150 nmol/kg SC, sitagliptin study, fasted mice, mean ± SEM): 0.91 ± 0.04 g
- circulating half-life [4]: approximately 7 minutes
